What was measured:
Type in all cases: functional, Cercopithecidae
[1] = tested on: COS-7; assay: Transfection efficiency when the compound/DNA charge ratio was 15:1
[2] = tested on: COS-7; assay: Transfection efficiency when the compound/DNA charge ratio was 5:1
[3] = tested on: COS-7; assay: Transfection efficiency when the compound/DNA charge ratio was 11:1
[4] = tested on: COS-7; assay: Transfection efficiency when the compound/DNA charge ratio was 3:1
[5] = tested on: COS-7; assay: Transfection efficiency when the compound/DNA charge ratio was 9:1
[6] = tested on: COS-7; assay: Transfection efficiency when the compound/DNA charge ratio was 7:1
[7] = tested on: COS-7; assay: Transfection efficiency when the compound/DNA charge ratio was 13:1
[8] = tested on: COS-7; assay: Transfection efficiency when the compound/DNA charge ratio was 1:1

| Structure (SMILES) | Transfection efficiency [1] | Transfection efficiency [2] | Transfection efficiency [3] | Transfection efficiency [4] | Transfection efficiency [5] | Transfection efficiency [6] | Transfection efficiency [7] | Transfection efficiency [8] |
| --- | --- | --- | --- | --- | --- | --- | --- | --- |
| CC(C)CCCC(C)[C@H]1CC[C@H]2C3CC=C4C[C@@H](OC(=O)C[N+](C)(C)CCO)CCC4(C)[C@H]3CCC12C (stereo partly specified) | 31000 RLU (ug of protein)-1 | 18500 RLU (ug of protein)-1 | 31100 RLU (ug of protein)-1 | 4800 RLU (ug of protein)-1 | 29600 RLU (ug of protein)-1 | 26500 RLU (ug of protein)-1 | 30000 RLU (ug of protein)-1 | 4300 RLU (ug of protein)-1 |
| CC(C)CCCC(C)[C@H]1CC[C@H]2C3CC=C4C[C@@H](OC(=O)OCC[N+](C)(C)C)CCC4(C)[C@H]3CCC12C (stereo partly specified) | 2000 RLU (ug of protein)-1 | 77200 RLU (ug of protein)-1 | 3600 RLU (ug of protein)-1 | 97200 RLU (ug of protein)-1 | 11400 RLU (ug of protein)-1 | 45400 RLU (ug of protein)-1 | 2200 RLU (ug of protein)-1 | 48500 RLU (ug of protein)-1 |
| CC(C)CCCC(C)[C@H]1CC[C@H]2C3CC=C4C[C@@H](OC(=O)CCC(=O)OCCN(C)C)CCC4(C)[C@H]3CCC12C (stereo partly specified) | 6700 RLU (ug of protein)-1 | 12200 RLU (ug of protein)-1 | 7500 RLU (ug of protein)-1 | 27000 RLU (ug of protein)-1 | 9600 RLU (ug of protein)-1 | 10600 RLU (ug of protein)-1 | 7200 RLU (ug of protein)-1 | 14000 RLU (ug of protein)-1 |
| CCCCCCCCCCCCCCOCC(COC(=O)C[N+](C)(C)C)OCCCCCCCCCCCCCC (stereo unspecified) | 31400 RLU (ug of protein)-1 | 10000 RLU (ug of protein)-1 | 18700 RLU (ug of protein)-1 | 4100 RLU (ug of protein)-1 | 17700 RLU (ug of protein)-1 | 15100 RLU (ug of protein)-1 | 29400 RLU (ug of protein)-1 | 4200 RLU (ug of protein)-1 |
| CC(C)CCCC(C)[C@H]1CC[C@H]2C3CC=C4C[C@@H](OC(=O)CCC(=O)OCCCN(C)C)CCC4(C)[C@H]3CCC12C (stereo partly specified) | 4700 RLU (ug of protein)-1 | 9200 RLU (ug of protein)-1 | 6000 RLU (ug of protein)-1 | 9200 RLU (ug of protein)-1 | 9100 RLU (ug of protein)-1 | 8900 RLU (ug of protein)-1 | 6100 RLU (ug of protein)-1 | 8000 RLU (ug of protein)-1 |
| CC(C)CCCC(C)[C@H]1CC[C@H]2C3CC=C4C[C@@H](OC(=O)OCCN(C)C)CCC4(C)[C@H]3CCC12C (stereo partly specified) | 7400 RLU (ug of protein)-1 | 76600 RLU (ug of protein)-1 | 15200 RLU (ug of protein)-1 | 93000 RLU (ug of protein)-1 | 24800 RLU (ug of protein)-1 | 41800 RLU (ug of protein)-1 | 10900 RLU (ug of protein)-1 | 40500 RLU (ug of protein)-1 |
| CC(C)CCCC(C)[C@H]1CC[C@H]2C3CC=C4C[C@@H](OC(=O)CCC(=O)NCCCN(C)C)CCC4(C)[C@H]3CCC12C (stereo partly specified) | 8000 RLU (ug of protein)-1 | 22500 RLU (ug of protein)-1 | 8800 RLU (ug of protein)-1 | 37300 RLU (ug of protein)-1 | 9800 RLU (ug of protein)-1 | 14800 RLU (ug of protein)-1 | 7900 RLU (ug of protein)-1 | 12800 RLU (ug of protein)-1 |
| CC(C)CCCC(C)[C@H]1CC[C@H]2C3CC=C4C[C@@H](OC(=O)OCC[N+](C)(C)CCO)CCC4(C)[C@H]3CCC12C (stereo partly specified) | 5300 RLU (ug of protein)-1 | 25500 RLU (ug of protein)-1 | 8100 RLU (ug of protein)-1 | 83200 RLU (ug of protein)-1 | 8700 RLU (ug of protein)-1 | 10500 RLU (ug of protein)-1 | 5000 RLU (ug of protein)-1 | 17300 RLU (ug of protein)-1 |
| CC(C)CCCC(C)[C@H]1CC[C@H]2C3CC=C4C[C@@H](OC(=O)C[N+](C)(C)C)CCC4(C)[C@H]3CCC12C (stereo partly specified) | 1700 RLU (ug of protein)-1 | 20100 RLU (ug of protein)-1 | 2800 RLU (ug of protein)-1 | 86600 RLU (ug of protein)-1 | 4300 RLU (ug of protein)-1 | 5300 RLU (ug of protein)-1 | 2000 RLU (ug of protein)-1 | 17000 RLU (ug of protein)-1 |
| CC(C)CCCC(C)[C@H]1CC[C@H]2C3CC=C4C[C@@H](OC(=O)CCC(=O)NCCN(C)C)CCC4(C)[C@H]3CCC12C (stereo partly specified) | 36500 RLU (ug of protein)-1 | 94100 RLU (ug of protein)-1 | 75400 RLU (ug of protein)-1 | 41100 RLU (ug of protein)-1 | 98100 RLU (ug of protein)-1 | 108900 RLU (ug of protein)-1 | 54300 RLU (ug of protein)-1 | 17000 RLU (ug of protein)-1 |
| CC(C)CCCC(C)[C@H]1CC[C@H]2C3CC=C4C[C@@H](OC(=O)CN(C)C)CCC4(C)[C@H]3CCC12C (stereo partly specified) | 3400 RLU (ug of protein)-1 | 1500 RLU (ug of protein)-1 | 3100 RLU (ug of protein)-1 | 4000 RLU (ug of protein)-1 | 2000 RLU (ug of protein)-1 | 1700 RLU (ug of protein)-1 | 2100 RLU (ug of protein)-1 | 6900 RLU (ug of protein)-1 |
| CCCCCCCCCCCCCCOCC(COC(=O)CN(C)C)OCCCCCCCCCCCCCC (stereo unspecified) | 600 RLU (ug of protein)-1 | 5500 RLU (ug of protein)-1 | 1000 RLU (ug of protein)-1 | 8000 RLU (ug of protein)-1 | 1700 RLU (ug of protein)-1 | 600 RLU (ug of protein)-1 | 2500 RLU (ug of protein)-1 | 3300 RLU (ug of protein)-1 |

Source: ChEMBL document CHEMBL1133337, “Synthesis and transfection properties of novel non-toxic monocationic lipids. Variation of lipid anchor, spacer and head group structure” (2000)
